Measurements taken from ChEMBL document CHEMBL4699579, “A Peptidyl Inhibitor that Blocks Calcineurin-NFAT Interaction and Prevents Acute Lung Injury” (J Med Chem, 2020).
One block for each molecule: values may come before it. Calls of active or inactive are those of the source. The rule behind the calls is not given here. Positions of bridges follow the written chain, without caps; N, C: chain ends. Non-standard residues stand in square brackets, D forms with d. Residues, ends and D or L forms follow the SMILES beside them. Chains are numbered I, II in the order given. *: point of attachment. Benzoyl(2,3-Cl2) = O=C(c1cccc(Cl)c1Cl)*; 2Nal = N[C@@H](Cc1ccc2ccccc2c1)C(=O)O; Tle = CC(C)(C)[C@H](N)C(=O)O; AEEA = NCCOCCOCC(=O)O

Columns and labels:
Mus musculus [1] = assay: Anti-inflammatory activity in BALB/c mouse model of LPS-induced ALI assessed as reduction in number of neutrophils BALF at 5 mg/kg dosed via intranasal insuffIation pre-treated 2 hrs before LPS stimulation for 16 hrs; type: functional, organism-based; conditions: dose mg/kg 5-10, time 18.0 hrs
Mus musculus [2] = assay: Anti-inflammatory activity in BALB/c mouse model of LPS-induced ALI assessed as reduction in LPS-induced TNFalpha in plasma at 10 mg/kg dosed via intranasal insuffIation pre-treated 2 hrs before LPS stimulation for 16 hrs; type: functional, organism-based; conditions: time 18.0 hrs
Macrophage [3] = assay: Inhibition of calcineurin-NFATc3 interaction in mouse bone marrow-derived macrophages assessed as reduction in LPS-induced NFATc3 nuclear translocation at 1 uM pre-incubated before LPS stimulation for 1 hr using biotinylated compound by immunofluorescence staining assay
Mus musculus [4] = assay: Anti-inflammatory activity in BALB/c mouse model of LPS-induced ALI assessed as reduction in LPS-induced IL6 in plasma at 10 mg/kg dosed via intranasal insuffIation pre-treated 2 hrs before LPS stimulation for 16 hrs; type: functional, organism-based; conditions: time 18.0 hrs
Mus musculus [5] = assay: Anti-inflammatory activity in BALB/c mouse model of LPS-induced ALI assessed as reduction in LPS-induced TNFalpha in BALF at 10 mg/kg dosed via intranasal insuffIation pre-treated 2 hrs before LPS stimulation for 16 hrs; type: functional, organism-based; conditions: time 18.0 hrs
Mus musculus [6] = assay: Anti-inflammatory activity in BALB/c mouse model of LPS-induced ALI assessed as reduction in lung wet-to-dry ratios at 5 mg/kg dosed via intranasal insuffIation pre-treated 2 hrs before LPS stimulation for 16 hrs; type: functional, organism-based; conditions: dose mg/kg 5-10, time 18.0 hrs
Mus musculus [7] = assay: Anti-inflammatory activity in BALB/c mouse model of LPS-induced ALI assessed as reduction in LPS-induced TNFalpha in BALF at 5 mg/kg dosed via intranasal insuffIation pre-treated 2 hrs before LPS stimulation for 16 hrs; type: functional, organism-based; conditions: dose mg/kg 5-10, time 18.0 hrs
Mus musculus [8] = assay: Anti-inflammatory activity in BALB/c mouse model of LPS-induced ALI assessed as reduction in LPS-induced extravasated BALF protein in BALF at 5 mg/kg dosed via intranasal insuffIation pre-treated 2 hrs before LPS stimulation for 16 hrs; type: functional, organism-based; conditions: dose mg/kg 5-10, time 18.0 hrs
Mus musculus [9] = assay: Anti-inflammatory activity in BALB/c mouse model of LPS-induced ALI assessed as reduction in LPS-induced IL6 in BALF at 5 mg/kg dosed via intranasal insuffIation pre-treated 2 hrs before LPS stimulation for 16 hrs; type: functional, organism-based; conditions: dose mg/kg 5-10, time 18.0 hrs
Mus musculus [10] = assay: Anti-inflammatory activity in BALB/c mouse model of LPS-induced ALI assessed as reduction in LPS-induced TNFalpha in plasma at 5 mg/kg dosed via intranasal insuffIation pre-treated 2 hrs before LPS stimulation for 16 hrs; type: functional, organism-based; conditions: dose mg/kg 5-10, time 18.0 hrs
Mus musculus [11] = assay: Anti-inflammatory activity in BALB/c mouse model of LPS-induced ALI assessed as reduction in LPS-induced extravasated BALF protein in BALF at 10 mg/kg dosed via intranasal insuffIation pre-treated 2 hrs before LPS stimulation for 16 hrs; type: functional, organism-based; conditions: time 18.0 hrs
Macrophage [12] = assay: Inhibition of LPS-induced IL6 production in mouse lung macrophages at 10 uM pre-incubated 4 hrs before LPS stimulation for 8 hrs by ELISA; type: functional, cell-based; conditions: time 12.0 hrs
Mus musculus [13] = assay: Anti-inflammatory activity in BALB/c mouse model of LPS-induced ALI assessed as reduction in number of neutrophils BALF at 10 mg/kg dosed via intranasal insuffIation pre-treated 2 hrs before LPS stimulation for 16 hrs; type: functional, organism-based; conditions: time 18.0 hrs
Macrophage [14] = assay: Inhibition of LPS-induced TNFalpha production in mouse lung macrophages at 10 uM pre-incubated 4 hrs before LPS stimulation for 8 hrs by ELISA; type: functional, cell-based; conditions: time 12.0 hrs
Mus musculus [15] = assay: Anti-inflammatory activity in BALB/c mouse model of LPS-induced ALI assessed as reduction in LPS-induced IL6 in plasma at 5 mg/kg dosed via intranasal insuffIation pre-treated 2 hrs before LPS stimulation for 16 hrs; type: functional, organism-based; conditions: dose mg/kg 5-10, time 18.0 hrs
Mus musculus [16] = assay: Anti-inflammatory activity in BALB/c mouse model of LPS-induced ALI assessed as reduction in lung wet-to-dry ratios at 10 mg/kg dosed via intranasal insuffIation pre-treated 2 hrs before LPS stimulation for 16 hrs; type: functional, organism-based; conditions: time 18.0 hrs
Mus musculus [17] = assay: Anti-inflammatory activity in BALB/c mouse model of LPS-induced ALI assessed as reduction in LPS-induced IL6 in BALF at 10 mg/kg dosed via intranasal insuffIation pre-treated 2 hrs before LPS stimulation for 16 hrs; type: functional, organism-based; conditions: time 18.0 hrs
Jurkat = assay: Inhibition of Calcineurin in human Jurkat cells; type: cell-based
[18] = Toxicity in mouse lung macrophages cells assessed as reduction in cell viability up to 25 uM incubated for 72 hrs by MTT assay; type: tissue-based; conditions: macrophage
Macrophage [19] = assay: Inhibition of calcineurin-NFATc3 interaction in mouse lung macrophages assessed as reduction in LPS-induced IL6 production at 0.01 to 10 uM pre-incubated 4 hrs before LPS stimulation for 8 hrs by ELISA; type: tissue-based; conditions: dose microM 0.01-10, time 12.0 hrs
Macrophage [20] = assay: Inhibition of calcineurin-NFATc3 interaction in mouse lung macrophages assessed as reduction in LPS-induced TNFalpha production at 0.01 to 10 uM pre-incubated 4 hrs before LPS stimulation for 8 hrs by ELISA; type: tissue-based; conditions: dose microM 0.01-10, time 12.0 hrs
HeLa = assay: Toxicity in human HeLa cells assessed as reduction in cell viability up to 25 uM incubated for 72 hrs by MTT assay; type: cell-based
[21] = Half life in human serum; type: ADME, cell-free
[22] = Drug uptake in cytosol in human HeLa cells assessed as cytosolic delivery efficiency at 5 uM incubated for 2 hrs by floe cytometry relative to control; type: ADME, subcellular

Structure (SMILES): CC(C)[C@H](NC(=O)[C@H](C)NC(=O)[C@@H](NC(=O)[C@@H]1CCCN1C(=O)[C@H](Cc1cnc[nH]1)NC(=O)[C@@H]1CCCN1C(=O)CNC(=O)COCCOCCNC(=O)CC[C@@H]1NC(=O)[C@@H](CCCNC(=N)N)NC(=O)[C@H](CCCNC(=N)N)NC(=O)[C@@H](CCCNC(=N)N)NC(=O)[C@H](CCCNC(=N)N)NC(=O)[C@H](Cc2ccc3ccccc3c2)NC(=O)[C@@H](Cc2ccccc2)NC1=O)C(C)C)C(=O)N[C@@H](C)C(=O)N[C@@H](C)C(=O)NCC(=O)N1CCC[C@H]1C(=O)N[C@@H](Cc1c[nH]cn1)C(=O)N[C@@H](CCC(=O)O)C(=O)N[C@@H](CCC(=O)O)C(=O)N[C@@H](CCCCN)C(N)=O
Activity (Mus musculus [1]): inactive
Activity (Mus musculus [2]): inactive
inhibition (Macrophage [3]): inactive
Activity (Mus musculus [4]): inactive
Activity (Mus musculus [5]): inactive
Activity (Mus musculus [6]): inactive
Activity (Mus musculus [7]): inactive
Activity (Mus musculus [8]): inactive
Activity (Mus musculus [9]): inactive
Activity (Mus musculus [10]): inactive
Activity (Mus musculus [11]): inactive
inhibition (Macrophage [12]): Active
Activity (Mus musculus [13]): inactive
inhibition (Macrophage [14]): Active
Activity (Mus musculus [15]): inactive
Activity (Mus musculus [16]): inactive
Activity (Mus musculus [17]): inactive

Structure (SMILES): CC[C@H](C)[C@H](NC(=O)[C@@H](NC(=O)c1cccc(Cl)c1Cl)C(C)(C)C)C(=O)N[C@H](C(=O)N[C@H](C(=O)N[C@H](C(=O)N[C@@H](CCC(N)=O)C(=O)N[C@@H](Cc1c[nH]cn1)C(=O)N[C@H](CC(C)C)C(=O)N[C@@H](CO)C(=O)NCCOCCOCC(=O)N[C@@H](CCCCNC(=O)CC[C@@H]1NC(=O)[C@@H](CCCNC(=N)N)NC(=O)[C@H](CCCNC(=N)N)NC(=O)[C@@H](CCCNC(=N)N)NC(=O)[C@H](CCCNC(=N)N)NC(=O)[C@H](Cc2ccc3ccccc3c2)NC(=O)[C@@H](Cc2ccccc2)NC1=O)C(N)=O)[C@@H](C)O)[C@@H](C)CC)C(C)(C)O
inhibition (Jurkat): Active

half-life [21]: > 24 h
Structure (SMILES): CC[C@H](C)[C@H](NC(=O)[C@@H](NC(=O)c1cccc(Cl)c1Cl)C(C)(C)C)C(=O)N[C@H](C(=O)N[C@H](C(=O)N[C@H](C(=O)N[C@@H](CCC(N)=O)C(=O)N[C@@H](Cc1c[nH]cn1)C(=O)N[C@H](CC(C)C)C(=O)N[C@@H](CO)C(=O)NCCOCCOCC(=O)N[C@@H](CCCCNC(=O)CC[C@@H]1NC(=O)[C@@H](CCCNC(=N)N)NC(=O)[C@H](CCCNC(=N)N)NC(=O)[C@@H](CCCNC(=N)N)NC(=O)[C@H](CCCNC(=N)N)NC(=O)[C@H](Cc2ccc3ccccc3c2)NC(=O)[C@@H](Cc2ccccc2)NC1=O)C(N)=O)[C@@H](C)O)[C@@H](C)CC)C(C)(C)C (I: {Benzoyl(2,3-Cl2)}-[Tle]I[Tle]ITQH[dL]S[AEEA]K-NH2 / II: cyclo([2Nal]R[dR]R[dR]E[dF]); amide I:11-II:6)
Activity (Mus musculus [1]): inactive
Activity (Mus musculus [2]): inactive
Activity [18]: Non-Toxic
Activity (Mus musculus [4]): inactive
Activity (Mus musculus [5]): inactive
inhibition (Macrophage [19]): inactive
Activity (Mus musculus [6]): inactive
Activity (Mus musculus [7]): inactive
Activity (Mus musculus [8]): inactive
Activity (Mus musculus [9]): inactive
Activity (Mus musculus [10]): inactive
Activity (Mus musculus [11]): inactive
inhibition (Macrophage [20]): inactive
Activity (Mus musculus [13]): inactive
Activity (Mus musculus [15]): inactive
Activity (HeLa): Non-Toxic
Activity (Mus musculus [16]): inactive
Activity (Mus musculus [17]): inactive

Drug uptake [22]: 62%
Structure (SMILES): N=C(N)NCCC[C@@H]1NC(=O)[C@H](Cc2ccc3ccccc3c2)NC(=O)[C@@H](Cc2ccccc2)NC(=O)[C@H](CCC(N)=O)NC(=O)[C@@H](CCCNC(=N)N)NC(=O)[C@H](CCCNC(=N)N)NC(=O)[C@@H](CCCNC(=N)N)NC1=O (cyclo([2Nal]R[dR]R[dR]Q[dF]))
